Reference: patent US9145389B2, “Benzimidazole compound crystal” (Takeda Pharmaceutical Company Limited, priority 1999, dated 2015)

Assays:
[1] = Stability during storage at 60° C. (stopper removed), content by HPLC; assay type: physicochemical; details: for Description: appearance after storage at 60° C. (exposed)
Experimental: The crystals of R(+)-lansoprazole as obtained in Example 2 (about 5 mg) and amorphous R(+)-lansoprazole as obtained in Reference Example 1 (about 5 mg) were each taken in a colorless glass bottle, and their stability during storage at 60° C. (stopper removed) was examined. A 25 ml solution (concentration: about 0.2 mg/ml) of the sample after completion of storage in the mobile phase, along with a standard solution prepared using the initial lot, was analyzed under the HPLC conditions shown below, and the R(+)-lansoprazole content (residual percentage) was calculated from the peak area obtained.

[2] = system: Gastric Mucosal Injury Due to Stress of Water Immersion Restraint in Rat; assay: Suppressive action on gastric mucosal injury due to stress of water immersion restraint in rat; assay type: in vivo; details: male SD rats, 3 mg/kg orally 30 minutes before stressing
Experimental: Suppressive Action on Gastric Mucosal Injury Due to Stress of Water Immersion Restraint in Rat
Male SD rats (7 weeks of age, weighing 230 to 250 g) were fasted for 24 hours, after which they were stressed by being housed in restraint cages and immersed to below the xiphoid process in a standing position in a 23° C. constant-temperature water chamber. After 5 hours, the rats were removed from the cages and sacrificed using gaseous carbon dioxide, and their stomachs excised. After the lower portion of the esophagus was clipped, a 1% formalin solution (10 ml) was injected into the stomach via the duodenum, which was then occluded, and the stomach was immersed in the same solution. After 10 minutes, an incision was made along the greater curvature, and the length (mm) of each mucosal injury was measured under a stereomicroscope. The overall sum of the injury lengths in each stomach was taken as the gastric mucosal injury index.
The crystals of (R)-2-[[[3-methyl-4-(2,2,2-trifluoroethoxy)-2-pyridinyl]methyl]sulfinyl]-1H-benzimidazole (R(+)-lansoprazole) as obtained in Example 2 were suspended in 0.5% methyl cellulose (pH 9.5) containing 0.05 M NaHCO3 and orally administered at 30 minutes before stressing (dosing volume 2 ml/kg). Each treatment group comprised 9 animals. The control group (solvent administration group) and the drug administration group were compared by Steel's test.

Description ([1]; 1 week, listed as Amorphous) | Description ([1]; 2 weeks, listed as Amorphous) | Content (Residual percentage) ([1]; storage at 60° C. (exposed), 1 week) | Content (Residual percentage) ([1]; storage at 60° C. (exposed), 1 week, listed as Amorphous) | Content (Residual percentage) ([1]; storage at 60° C. (exposed), 2 weeks) | Content (Residual percentage) ([1]; storage at 60° C. (exposed), 2 weeks, listed as Amorphous) | Description ([1]; 1 week, listed as Crystal) | Description ([1]; 2 weeks, listed as Crystal) | Description ([1]; 4 weeks) | Content (Residual percentage) ([1]; storage at 60° C. (exposed), 1 week, listed as Crystal) | Content (Residual percentage) ([1]; storage at 60° C. (exposed), 2 weeks, listed as Crystal) | Content (Residual percentage) ([1]; storage at 60° C. (exposed), 4 weeks) | Content retained ([1]; storage at 60° C. (exposed), for up to 4 weeks) | SMILES | Gastric mucosal injury index ([2]; 5 hours water immersion restraint, mean ± standard error, 9 animals) | Suppression rate ([2]; versus control group)
Brown | Blackish brown | 70.8% | 70.8% | 57.5% | 57.5% | – | – | – | – | – | – | – | Cc1c(OCC(F)(F)F)ccnc1C[S@@+]([O-])c1nc2ccccc2[nH]1 [Reference Example 1, (R)-2-[[[3-methyl-4-(2,2,2-trifluoroethoxy)-2-pyridinyl]methyl]sulfinyl]-1H-benzimidazole, reference compound] | – | –
– | – | – | – | – | – | Light-brown | Brown | Brown | 97.0% | 93.8% | 91.7% | exceeding 90% | Cc1c(OCC(F)(F)F)ccnc1C[S@@+]([O-])c1nc2ccccc2[nH]1 [Example 2, (R)-2-[[[3-methyl-4-(2,2,2-trifluoroethoxy)-2-pyridinyl]methyl]sulfinyl]-1H-benzimidazole] | 0.2 ± 0.2 mm | 98.0%
